Laboratory results published in patent publication US11209437B2, “Fluorescent probe and preparation method and use thereof” (Fluorescence Diagnosis (shanghai) Biotech Company Ltd., priority 2016, dated 2021).

Tests used:
[1] = Viscosity responsiveness: fluorescence emission spectra of probes in glycerol and methanol; assay type: physicochemical
Procedure, shortened: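 Each probe, from a 1×10^−2 M DMSO stock, was diluted to a final 1×10^−5 M in glycerol and in methanol. Fluorescence emission spectra were then recorded under identical conditions at each probe's maximum excitation wavelength.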

[2] = Fluorescence of free probe prior to binding to a protein tag; assay type: physicochemical
SNAP protein tags = target: T1, SNAP protein tags (Homo sapiens, UniProt P16455, A127T/A154D/C150Q/C62A/E30R/G131K/G132T/G153L/K125A/K32I/L33F/M134L/N157G/Q115S/Q116H/R128A/R135S/S151G/S152D/S159E); assay: Fluorescence activation of probe after incubation with corresponding protein tag (SNAP); assay type: biochemical; conditions: probe 5 μM, protein tag 10 μM, 37° C., 1 hr
T1 sequence (P16455 1-182 E30R/K32I/L33F/C62A/Q115S/Q116H/K125A/A127T/R128A/G131K/G132T/M134L/R135S/C150Q/S151G/S152D/G153L/A154D/N157G/S159E): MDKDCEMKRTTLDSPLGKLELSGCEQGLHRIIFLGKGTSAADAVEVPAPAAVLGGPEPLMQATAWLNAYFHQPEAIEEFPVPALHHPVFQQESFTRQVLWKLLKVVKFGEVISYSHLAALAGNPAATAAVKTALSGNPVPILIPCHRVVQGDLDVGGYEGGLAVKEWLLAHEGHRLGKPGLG
Procedure, shortened: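 Probe (5 μM final) mixed with CLIP or SNAP protein tag (10 μM final) and incubated 1 hr at 37° C. Fluorescence intensity change measured by fluorescence spectrophotometer, with quantum yield of tag-bound probe determined.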

[3] = system: HeLa cells with stable expression of protein tags; assay: Labeling of HeLa cells expressing protein tags vs HeLa-WT cells, confocal imaging; assay type: cell-based; conditions: probe 5 μM, 37° C., 2 hrs
Protocol: HeLa cells with stable expression of protein tags and HeLa-WT cells (HeLa primitive cells, with no protein tag expressed) were implanted in a 14 mm glass-bottom 96-well cell culture plate and stabilized for 10 hrs. Probes 1, 15, 21, 30, 56, 60, 63, 88 were added to the media, respectively and diluted to 5 μMs. The cells were incubated in a carbon dioxide incubator at 37° C. for 2 hrs, and then a Leica TPS-8 confocal microscopy was used to image the fluorescent changes of the labeled cells. […] However, for HeLa cells with protein tags expressed shown by group A in FIG. 12, strong fluorescent signals could be detected, which are nearly 300 times stronger.

HeLa cells = assay: Labeling of organelle-localized protein tags in HeLa cells without washing; assay type: cell-based; conditions: 0.2 μM probe, 2 hrs, no washing
Text: To verify that probes 1, 21, 48, 60, 66 and 77 can be used to label target proteins located by different organelles, HeLa cells were taken as an example to detect the effect of probes on labeling different subcellular proteins. HeLa cells were implanted 5000 cells per well in a 96-well glass-bottom cell culture plate. 14 hrs later, the cells were transfected with the plasmids encoding different organelle localized protein tags using Lipo2000; the original medium was removed 24 hrs after transfection, washed with a phenol-free red DMEM medium twice, and incubated with a phenol-free red medium containing 0.2 μM probes for 2 hrs, and then the cell labeling effects were detected by imaging with a leica TCS-8 confocal microscopy.

SNAP-IAA17-H2B protein = assay: Fluorescence change on AID-induced degradation of SNAP-IAA17-H2B in HeLa cells; assay type: cell-based; conditions: 1 μM probe; 120 min after indoleacetic acid
Text: To verify the correlation between the fluorescent activation of the probe of the present invention and the existence of proteins, SNAP protein in mammalian cells was taken as an example, and the fluorescence changes of SNAP protein binding probes after protein degradation were detected in HeLa cells by taking AID degradation system as an example. Firstly, HeLa cells were implanted 20,000/cm^2 in a 20 mm glass-bottom cell culture dish, and 14 hrs later, plasmids pcdna3.1-TIR1 and pcdna3.1-SNAP-IAA17-H2B were transfected by invitrogen's lipofectmain2000 transfection reagent. 24 hrs after the cell transfection, the original cell culture medium was replaced with a phenol-free red DMEM medium containing 1 μM of probe 21 to label the cells. The cell samples were incubated in a carbon dioxide incubator at 37° C. for 1 hour. After the labeling was completed, the fluorescence signal of labeled cells was detected by imaging with a Leica SP8 laser confocal microscopy, and indoleacetic acid (IAA) was added to induce SNAP-IAA17-H2B protein to degrade, and the cell fluorescence changes were detected during the protein degradation. […] When proteins exist, the fluorescence is activated, and when proteins are degraded, the fluorescence disappears, which can be used to track and monitor the degradation process of target proteins.

fusion protein CX43-SNAP = assay: Tracing assembly of CX43-SNAP intercellular channels in HeLa cells; assay type: cell-based; conditions: probe 21 2 μM 1 hour first, then probe 1 1 μM
Text: To verify that the probe of the present invention can be used to monitor the assembly and degradation process of biological macromolecules in mammalian cells in real time, the process of tracing the assembly of intercellular protein CX43 to form intercellular channels in mammalian cells by the probe was detected by taking HeLa cells as an example. The C-terminal of CX43 gene was fused with SNAP gene, and HeLa cell line with stable expression of fusion protein CX43-SNAP was constructed and obtained by lentivirus infection technology. HeLa-CX43-SNAP cell lines were implanted in a 20 mm glass-bottom cell culture dish 10 hrs before the probe labeling. To conduct labeling, a phenol-free red DMEM medium was first used to dilute the probe 21 to 2 μM to replace the original cell culture medium. Cells were incubated in a carbon dioxide incubator at 37° C. for 1 hour. The cells were then washed twice using a fresh phenol-free red DMEM medium, with unbound probe 21 removed at 2-minute intervals. Then, DMEM phenol-free red culture medium containing 1 μM probe 1 was added to label cells. Leica SP8 confocal microscopy was used to monitor for a long time the fluorescence intensity and position changes of labeled cell samples at the corresponding fluorescence channels of probes 21 and 1, as shown in FIGS. 17A and 17B, respectively. […]

## CN(CCOC(=O)NCc1ccc(COc2nc(N)nc3[nH]cnc23)cc1)c1cc2sc(/C=C(\C#N)C(=O)OC(C)(C)C)cc2s1 [probe 21]
[1]; excited at maximum excitation wavelength of each probe
  Emission wavelength: 555 nm
[1]; probe 1×10^−5 M
  Fluorescence ratio in glycerol to methanol: 1481
[2]
  Quantum yield of free probe: <0.001
SNAP protein tags
  Fluorescence activation multiple: 560
  Quantum yield of probe bound to protein tag: 0.48
[3]
  Fluorescence signal in HeLa-WT cells (no protein tag expressed): no corresponding fluorescence signal was detected
  Fluorescent signal in HeLa cells with protein tags expressed, relative to HeLa-WT: ~300 times
HeLa cells
  Labeling of subcellular organelle structures: clearly display a variety of subcellular organelle structures without washing
SNAP-IAA17-H2B protein
  Fluorescence signal after indoleacetic acid-induced protein degradation: basically invisible
Fusion protein CX43-SNAP
  Fluorescence signal at intercellular channels: long-columnar specific fluorescence signal between two cells
